Experimental data taken from patent US12215460B2, “Methods of microbial control” (Clean Chemistry, Inc., priority 2015, dated 2025).
Where two headings read alike, the source gives them in different places.

How the values were obtained:
[1] = Bleaching of Kraft pulp, hand sheet tests
[2] = TOX formation tests in pulp bleaching
Description: […]. The pulp slurry was put into a 1 L glass beaker in a heated water bath. The beakers were fitted with liquid-tight covers to minimize evaporative losses of water and oxidants. After the pulp slurry was heated the oxidant solution and additional salt water was added to make a final composition of about 855 g water, 45.0 g of air-dry pulp, 8.55 g NaCl and the oxidant. The oxidant was mixed into the pulp slurry thoroughly with a stainless steel spatula for several minutes and then mixed periodically throughout the 2 hour bleaching period. The pH of the slurry was left at the natural pH created by each oxidant in the presence of the pulp.
The amount of oxidant used in each test was enough to partially bleach the amount of lignin present so that the oxidant was the limiting reagent. When peracetate oxidant was combined with Kraft pulp the evolution of some gas was observed accompanied by rapid bleaching that was clearly visible within the first few minutes. […]. After 2 hours at 50° C. the pulp slurries were vacuum filtered through a Buchner funnel over a medium porosity filter paper. There was no residual oxidant present in the filtrates. The four filtrate solutions recovered were put into amber glass bottles and preserved with sulfuric acid for total organic halide analyses, which were conducted by a third party laboratory.

[3] = system: microbes; experiment: Microbial control in water at slightly alkaline pH, oxidant comparison; assay type: cell-based
Source text: In some embodiments, microbial control in water at slightly alkaline pH was compared between peracetate oxidant, […] bleach, peracetic acid and […] dioxide. Alkaline pH is encountered in a variety of applications where microbial control and sanitization is needed, including pulp and paper processing, cooling towers, water treatment and chill tanks in poultry processing. […].

[4] = ORP of oxidants at pH 7; assay type: physicochemical; details: 29 mM
[5] = Thermal activation in clean water at pH 8.5 and 50 C; assay type: physicochemical; details: distilled water
[6] = flowback water, 22 C, pH 6.5; initial 80 mg/L (peracetate as PAA; PAA with 112 mg/L H2O2)
[7] = Entry 2, bleach time 30 min, 1.13 g/L PAA equiv., initial pH 8.2
[8] = Entry 8, 30 min, 4.0 g/L, initial pH 8.0
[9] = Entry 9, 30 min, 4.0 g/L, initial pH 8.9

[O][Cl+][O-] [chlorine dioxide]
Final ORP [1, 7]: 896 mV vs SHE | Final pH [1, 7]: 6.4 | Normalized TOX [2]: 17.7 mg/L per 1000 mg/L oxidant | TOX [2]: 17.7 mg/L | performance as antimicrobial disinfectant [3]: performed well

OO [hydrogen peroxide]
ORP [4]: about 0.5 V (vs SHE)

OCl [hypochlorous acid]
ORP [4]: over 1.1 V (vs SHE)

CC(=O)OO [peracetic acid]
time peracetic acid and hydrogen peroxide concentrations were stable [5]: about 90 minutes | ORP ([5]; constant during the test): around 280 mV vs SHE | Final ORP ([1]; Entry 7, 30 min, 4.0 g/L, initial pH 7.0): 502 mV vs SHE | Final pH ([1]; Entry 7, 30 min, 4.0 g/L, initial pH 7.0, stock 11.4% PAA and 15.6% H2O2): 7.0 | Final ORP [1, 8]: 406 mV vs SHE | Final pH [1, 8]: 8.0 | Final ORP [1, 9]: 253 mV vs SHE | Final pH [1, 9]: 8.8 | TOX [6]: BDL (BDL = below detection limit, less than 0.05 mg/L) | Normalized TOX ([2]; Kraft pulp 5% consistency, 1.0% NaCl, 50 C, 2 hours): 4.5 mg/L per 1000 mg/L oxidant | TOX ([2]; Kraft pulp 5% consistency, 1.0% NaCl, 50 C, 2 hours, initial 4000 mg/L peracetate (as PAA equivalents), 4000 PAA + 5400 H2O2, 1000 ClO2, blank 0.68): 17.8 mg/L | performance as antimicrobial disinfectant [3]: lowest performance

sodium peracetate [peracetate oxidant]
total organic halides (TOX) relative to chlorine dioxide [2]: about ten times less
